How the values were obtained:
Galectin-1 = Galectin-1 (Homo sapiens, UniProt P09382); experiment: fluorescence anisotropy assay: The affinity of Example 1-33 for galectins were determined by a fluorescence anisotropy assay where the compound was used as an inhibitor of the interaction between galectin and a fluorescein tagged saccharide probe as described Sörme, P., Kahl-Knutsson, B., Huflejt, M., Nilsson, U. J., and Leffler H. (2004) Fluorescence polarization as an analytical tool to …
Galectin-3 = Galectin-3 (Homo sapiens, UniProt P17931); experiment: fluorescence anisotropy assay: The affinity of Example 1-33 for galectins were determined by a fluorescence anisotropy assay where the compound was used as an inhibitor of the interaction between galectin and a fluorescein tagged saccharide probe as described Sörme, P., Kahl-Knutsson, B., Huflejt, M., Nilsson, U. J., and Leffler H. (2004) Fluorescence polarization as an analytical tool to evaluate galectin-ligand interactions. Anal. Biochem. 334: 36-47, (Sörme et al., 2004) and Monovalent interactions of Galectin-1 By Salomonsson, Emma; Larumbe, Amaia; Tejler, Johan; Tullberg, Erik; Rydberg, Hanna; Sundin, Anders; Khabut, Areej; Frejd, Torbjorn; Lobsanov, Yuri D.; Rini, James M.; et al, From Biochemistry (2010), 49(44), 9518-9532, (Salomonsson et al., 2010).
Galectin-3, sequence (P17931 whole entry): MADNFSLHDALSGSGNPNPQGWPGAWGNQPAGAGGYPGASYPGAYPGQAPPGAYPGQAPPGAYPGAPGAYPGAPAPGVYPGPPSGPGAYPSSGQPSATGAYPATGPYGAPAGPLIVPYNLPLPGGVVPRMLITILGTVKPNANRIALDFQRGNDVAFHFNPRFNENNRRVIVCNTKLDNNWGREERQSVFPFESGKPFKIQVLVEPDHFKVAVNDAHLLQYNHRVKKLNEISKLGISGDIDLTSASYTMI

Galectin-1, sequence (P09382 whole entry): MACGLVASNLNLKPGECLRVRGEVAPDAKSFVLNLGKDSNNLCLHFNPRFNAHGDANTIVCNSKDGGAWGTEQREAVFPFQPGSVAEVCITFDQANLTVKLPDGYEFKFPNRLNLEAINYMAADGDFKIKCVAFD

- Kd (Galectin-1): 650 nM
- Kd (Galectin-3): 1700 nM
Structure (SMILES): OC[C@H]1O[C@H](Sc2ccc(Cl)c(Cl)c2)[C@H](O)[C@@H](n2cc(-c3nc(O)cs3)nn2)[C@H]1O

From ChEMBL document CHEMBL5728583, “Galactoside inhibitor of galectins” (2021)
